The target in data set [1] is TrkA kinase (Homo sapiens, UniProt P04629). The data set is described as follows: TrkA kinase assay (mobility shift assay). It is filed as biochemical. The conditions noted are these: numeric values; read-out: Trk A Kinase IC50. The gist of the method: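 Caliper mobility-shift readout of FAM-labelled peptide conversion by TrkA in 50 mM HEPES pH 7.5, 0.0015% Brij-35, with ATP; enzyme preincubated 10 min with compound (10-point dilution), reaction at 28 °C, EDTA stop. Inhibition relative to DMSO and no-enzyme controls; IC50 by four-parameter fit.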

Data set [2] concerns the target T1, Ba/F3-TPM3-NTRK1 (Homo sapiens, UniProt P04629).
T1 construct: expressed in transfected cells; host or cells: Ba/F3; the other entry of the earlier key: TPM3 (P06753, Tropomyosin alpha-3 chain)
As to the kind of experiment: Ba/F3-TPM3-NTRK1 cells proliferation assay. Format: cell-based. The following applies: 72 h, CellTiter Glo. In a few lines:
(§1)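 Ba/F3 cells stably expressing TPM3-NTRK1 or ETV6-NTRK3 fusions, 2000/well, exposed 72 h to compound at 300 to 0.05 nM final (3-fold series, 0.5% DMSO). Viability by CellTiter-Glo luminescence; IC50 by four-parameter nonlinear regression.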

For data set [3], the target named is T2, Ba/F3-ETV6-NTRK3 (Homo sapiens, UniProt Q16288).
T2 construct: Ba/F3 cells with TPM3-NTRK1 or ETV6-NTRK3 fusion mutation gene stably overexpressed named Ba/F3-TPM3-NTRK1 and Ba/F3-ETV6-NTRK3; fused on or other part: P41212 (Transcription factor ETV6)
As to the kind of experiment: Ba/F3-ETV6-NTRK3 cells proliferation assay. The following applies: 72 h, CellTiter Glo. It is filed as cell-based. In a few lines:
as §1

In data set [4] the target is NTRK1-G595R (Homo sapiens, UniProt P04629, G595R). The data set is described as follows: NTRK1-G595R cell proliferation assay (Table 13). Format: cell-based.
Data set [5] can be described thus: Liver microsomes metabolic stability assay, human. It is filed as in vitro ADME. The following applies: human liver microsomes 0.5 mg/mL, 37° C.; for half-life at 2 μM: read-out: t1/2 Human. The gist of the method:
(§2)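 Pooled human, male rat or male mouse liver microsomes (0.5 mg/mL final) incubated at 37° C with 2 μM compound, with or without 1 mM NADPH. Samples at 0-60 min quenched in cold acetonitrile and analyzed by LC-MS/MS in duplicate. t1/2 derived from ln(% remaining) vs time slope, converted to CLint (μL/min/mg).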
In general terms: Microsomes from liver hold many membrane-bound enzymes, among them those of drug oxidation.

Data set [6] in a line: Liver microsomes metabolic stability assay, rat. It is filed as in vitro ADME. The conditions noted are these: male, rat liver microsomes 0.5 mg/mL, 37° C.; for half-life at 2 μM: read-out: t1/2 Rat. The gist of the method: as §2
Data set [7] in a line: Liver microsomes metabolic stability assay, mouse. Format: in vitro ADME. The following applies: male, mouse liver microsomes 0.5 mg/mL, 37° C.; for half-life at 2 μM: read-out: t1/2 Mouse. In a few lines: as §2

The values that follow come from patent publication US20210395256A1, “TYROSINE KINASE INHIBITORS, COMPOSITIONS AND METHODS THERE OF” (Betta Pharmaceuticals Co., Ltd., priority 2018, published 2021).

Molecules are shown by their SMILES.

T2 sequence (Q16288 whole entry, the tested form may be a part): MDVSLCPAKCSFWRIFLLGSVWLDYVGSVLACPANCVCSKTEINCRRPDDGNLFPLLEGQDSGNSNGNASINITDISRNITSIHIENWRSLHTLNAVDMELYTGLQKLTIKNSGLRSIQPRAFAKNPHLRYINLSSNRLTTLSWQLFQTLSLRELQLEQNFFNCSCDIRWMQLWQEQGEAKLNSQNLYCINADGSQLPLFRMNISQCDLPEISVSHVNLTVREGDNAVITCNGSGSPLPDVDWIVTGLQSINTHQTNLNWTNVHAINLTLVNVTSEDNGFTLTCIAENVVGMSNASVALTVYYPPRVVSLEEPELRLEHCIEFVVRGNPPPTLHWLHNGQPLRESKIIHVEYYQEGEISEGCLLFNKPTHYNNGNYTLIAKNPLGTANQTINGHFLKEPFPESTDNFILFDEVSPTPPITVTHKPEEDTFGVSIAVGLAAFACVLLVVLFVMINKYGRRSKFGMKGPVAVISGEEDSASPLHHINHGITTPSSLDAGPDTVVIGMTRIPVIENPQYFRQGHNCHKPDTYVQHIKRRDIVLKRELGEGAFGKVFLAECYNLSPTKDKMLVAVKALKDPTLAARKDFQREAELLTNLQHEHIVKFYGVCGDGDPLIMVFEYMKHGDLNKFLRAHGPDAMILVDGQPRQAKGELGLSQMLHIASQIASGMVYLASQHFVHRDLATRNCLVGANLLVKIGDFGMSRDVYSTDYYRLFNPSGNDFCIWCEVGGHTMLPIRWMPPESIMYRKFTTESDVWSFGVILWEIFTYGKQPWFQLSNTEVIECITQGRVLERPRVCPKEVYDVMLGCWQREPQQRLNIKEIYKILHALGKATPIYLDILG
Chain of NTRK1-G595R (P04629 33-796 G595R): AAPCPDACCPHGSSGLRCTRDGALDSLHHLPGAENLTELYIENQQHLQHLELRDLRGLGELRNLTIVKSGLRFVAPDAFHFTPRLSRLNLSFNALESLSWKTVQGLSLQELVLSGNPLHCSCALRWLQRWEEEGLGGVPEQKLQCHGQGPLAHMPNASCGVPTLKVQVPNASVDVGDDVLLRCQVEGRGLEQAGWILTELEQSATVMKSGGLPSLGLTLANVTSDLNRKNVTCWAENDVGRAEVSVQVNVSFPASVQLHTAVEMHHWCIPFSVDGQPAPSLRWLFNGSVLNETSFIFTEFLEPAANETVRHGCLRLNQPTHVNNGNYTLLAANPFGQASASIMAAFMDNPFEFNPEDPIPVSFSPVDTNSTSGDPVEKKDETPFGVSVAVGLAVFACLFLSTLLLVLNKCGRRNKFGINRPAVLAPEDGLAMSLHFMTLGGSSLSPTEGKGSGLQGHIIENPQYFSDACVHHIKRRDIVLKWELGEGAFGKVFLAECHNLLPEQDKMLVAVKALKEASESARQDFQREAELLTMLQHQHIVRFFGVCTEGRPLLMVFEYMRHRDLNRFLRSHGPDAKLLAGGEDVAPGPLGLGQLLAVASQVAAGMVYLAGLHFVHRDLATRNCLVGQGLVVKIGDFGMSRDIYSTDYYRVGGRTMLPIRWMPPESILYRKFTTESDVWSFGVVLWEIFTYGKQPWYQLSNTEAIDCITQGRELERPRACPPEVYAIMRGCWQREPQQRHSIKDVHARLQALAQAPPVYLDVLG
T1 sequence (P04629 510-796 limits assumed): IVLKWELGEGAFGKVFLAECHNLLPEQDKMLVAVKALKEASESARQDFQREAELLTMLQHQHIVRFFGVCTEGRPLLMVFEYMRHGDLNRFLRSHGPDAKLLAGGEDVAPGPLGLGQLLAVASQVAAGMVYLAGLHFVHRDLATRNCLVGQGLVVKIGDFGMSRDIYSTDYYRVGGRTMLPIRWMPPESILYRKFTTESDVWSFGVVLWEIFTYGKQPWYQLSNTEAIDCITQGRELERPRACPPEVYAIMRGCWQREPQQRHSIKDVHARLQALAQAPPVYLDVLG
Chain of TrkA kinase (P04629 33-796): as the sequence (P04629 33-796 G595R) above, with R563G counted along it

Turning to `C[S+]([O-])c1cc2nc(-c3cnn4ccc(N5CCC[C@@H]5c5cc(F)ccc5F)nc34)[nH]c2cc1C#N` (stereo partly drawn) [Compound 171, 2-(5-((R)-2-(2,5-difluorophenyl)pyrrolidin-1-yl)pyrazolo[1,5-a]pyrimidin-3-yl)-5-(methylsulfinyl)-1H-benzo[d]imidazole-6-carbonitrile], the IC50 is 1 nM in data set [1], 3.41 nM in data set [2], 2.63 nM in data set [3] and 216 nM in data set [4]. For the same compound, the microsomal CLint at 2 μM came out at 45.4 µL/min/mg in data set [5], 58.2 µL/min/mg in data set [6] and 71.2 µL/min/mg in data set [7]. Moreover, the figures for the half-life at 2 μM in data set [5], in data set [6] and in data set [7] were 30.5 min, 23.8 min and 19.5 min, respectively.

For `CS(=O)(=O)c1cc2nc(-c3cnn4ccc(N5CCC[C@@H]5c5cc(F)ccc5F)nc34)[nH]c2cc1C#N` [Compound 172, (R)-2-(5-(2-(2,5-difluorophenyl)pyrrolidin-1-yl)pyrazolo[1,5-a]pyrimidin-3-yl)-5-(methylsulfonyl)-1H-benzo[d]imidazole-6-carbonitrile], the IC50 in data set [1] came to 0.6 nM; in data set [2], 2.08 nM; in data set [3], 2.49 nM; in data set [4] it was 257 nM. Besides, the microsomal CLint at 2 μM turned out to be 41.6 µL/min/mg in data set [5], 44.8 µL/min/mg in data set [6] and 32.4 µL/min/mg in data set [7]. The half-life at 2 μM in data set [5] came out at 33.3 min; in data set [6], 30.9 min; in data set [7], 42.8 min.

In general, IC50 refers to the point on the concentration scale where inhibition reaches its midpoint. In general, microsomal CLint refers to a measure of how fast metabolising enzymes remove a compound, apart from limits set by blood flow. A higher microsomal CLint goes with faster metabolism.
